{"source": "patent US11767310B2", "about": "“Nicotinamide RIPK1 inhibitors” (AbbVie Inc., priority 2021, dated 2023)", "assay_in_all_cases": "Kinase binding screen", "conditions_in_all_cases": "read-out: Percent Control at 100 nM Compound Concentration", "key": {"TAOK2": {"molecular_target": "TAOK2 (Homo sapiens (Human), UniProt Q9UL54)"}, "CAMK1G": {"molecular_target": "CAMK1G (Homo sapiens (Human), UniProt Q96NX5)"}, "ACVRL1": {"molecular_target": "ACVRL1 (Homo sapiens (Human), UniProt P37023)"}, "NEK7": {"molecular_target": "NEK7 (Homo sapiens (Human), UniProt Q8TDX7)", "sequence (Q8TDX7 whole entry)": "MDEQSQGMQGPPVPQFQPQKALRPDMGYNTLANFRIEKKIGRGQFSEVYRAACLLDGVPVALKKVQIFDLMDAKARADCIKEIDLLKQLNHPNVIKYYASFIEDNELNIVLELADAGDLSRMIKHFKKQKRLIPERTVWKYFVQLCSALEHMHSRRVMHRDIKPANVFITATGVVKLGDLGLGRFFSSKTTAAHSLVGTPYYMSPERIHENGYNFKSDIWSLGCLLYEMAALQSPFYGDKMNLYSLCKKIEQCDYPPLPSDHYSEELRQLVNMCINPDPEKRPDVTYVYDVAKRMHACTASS"}, "[1]": {"molecular_target": "RPS6KA4(Kin.Dom.2-C-terminal) (Homo sapiens (Human), UniProt O75676)", "sequence (O75676 411-674)": "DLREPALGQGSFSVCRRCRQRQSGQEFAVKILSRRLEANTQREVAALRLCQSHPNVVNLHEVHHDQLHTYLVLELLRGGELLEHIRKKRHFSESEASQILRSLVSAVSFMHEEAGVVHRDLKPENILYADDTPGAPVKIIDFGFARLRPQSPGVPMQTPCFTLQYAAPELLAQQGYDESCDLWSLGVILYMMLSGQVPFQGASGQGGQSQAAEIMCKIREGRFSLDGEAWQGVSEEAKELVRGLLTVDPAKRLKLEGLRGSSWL"}, "RIPK5": {"molecular_target": "RIPK5 (Homo sapiens (Human), UniProt Q6XUX3)", "sequence (Q6XUX3 whole entry)": "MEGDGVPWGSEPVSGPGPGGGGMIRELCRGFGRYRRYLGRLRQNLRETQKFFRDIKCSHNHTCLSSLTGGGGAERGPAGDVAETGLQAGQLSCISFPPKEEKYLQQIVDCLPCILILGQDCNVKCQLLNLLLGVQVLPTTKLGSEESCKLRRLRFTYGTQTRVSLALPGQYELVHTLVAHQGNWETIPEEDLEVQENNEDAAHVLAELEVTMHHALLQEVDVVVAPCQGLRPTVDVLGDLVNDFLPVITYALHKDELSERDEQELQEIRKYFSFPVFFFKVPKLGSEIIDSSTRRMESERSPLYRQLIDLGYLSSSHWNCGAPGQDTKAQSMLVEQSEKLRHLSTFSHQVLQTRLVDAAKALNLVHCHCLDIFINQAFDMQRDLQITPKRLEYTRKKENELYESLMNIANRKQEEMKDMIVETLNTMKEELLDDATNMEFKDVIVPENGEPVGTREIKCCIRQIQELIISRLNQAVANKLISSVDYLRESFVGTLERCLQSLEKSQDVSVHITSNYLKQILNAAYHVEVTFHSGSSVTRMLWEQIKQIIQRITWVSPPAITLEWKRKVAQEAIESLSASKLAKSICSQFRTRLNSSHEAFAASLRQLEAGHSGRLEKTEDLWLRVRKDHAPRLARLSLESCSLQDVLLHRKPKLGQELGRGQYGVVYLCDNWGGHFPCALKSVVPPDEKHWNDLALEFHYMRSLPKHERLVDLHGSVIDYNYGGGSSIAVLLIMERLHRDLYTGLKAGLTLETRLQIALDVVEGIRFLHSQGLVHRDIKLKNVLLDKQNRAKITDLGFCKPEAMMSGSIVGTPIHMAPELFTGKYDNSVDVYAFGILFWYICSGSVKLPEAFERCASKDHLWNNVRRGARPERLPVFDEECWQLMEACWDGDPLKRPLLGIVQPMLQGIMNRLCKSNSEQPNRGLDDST"}, "EGFR": {"molecular_target": "EGFR (Homo sapiens (Human), UniProt P00533)", "sequence (P00533 25-1210)": "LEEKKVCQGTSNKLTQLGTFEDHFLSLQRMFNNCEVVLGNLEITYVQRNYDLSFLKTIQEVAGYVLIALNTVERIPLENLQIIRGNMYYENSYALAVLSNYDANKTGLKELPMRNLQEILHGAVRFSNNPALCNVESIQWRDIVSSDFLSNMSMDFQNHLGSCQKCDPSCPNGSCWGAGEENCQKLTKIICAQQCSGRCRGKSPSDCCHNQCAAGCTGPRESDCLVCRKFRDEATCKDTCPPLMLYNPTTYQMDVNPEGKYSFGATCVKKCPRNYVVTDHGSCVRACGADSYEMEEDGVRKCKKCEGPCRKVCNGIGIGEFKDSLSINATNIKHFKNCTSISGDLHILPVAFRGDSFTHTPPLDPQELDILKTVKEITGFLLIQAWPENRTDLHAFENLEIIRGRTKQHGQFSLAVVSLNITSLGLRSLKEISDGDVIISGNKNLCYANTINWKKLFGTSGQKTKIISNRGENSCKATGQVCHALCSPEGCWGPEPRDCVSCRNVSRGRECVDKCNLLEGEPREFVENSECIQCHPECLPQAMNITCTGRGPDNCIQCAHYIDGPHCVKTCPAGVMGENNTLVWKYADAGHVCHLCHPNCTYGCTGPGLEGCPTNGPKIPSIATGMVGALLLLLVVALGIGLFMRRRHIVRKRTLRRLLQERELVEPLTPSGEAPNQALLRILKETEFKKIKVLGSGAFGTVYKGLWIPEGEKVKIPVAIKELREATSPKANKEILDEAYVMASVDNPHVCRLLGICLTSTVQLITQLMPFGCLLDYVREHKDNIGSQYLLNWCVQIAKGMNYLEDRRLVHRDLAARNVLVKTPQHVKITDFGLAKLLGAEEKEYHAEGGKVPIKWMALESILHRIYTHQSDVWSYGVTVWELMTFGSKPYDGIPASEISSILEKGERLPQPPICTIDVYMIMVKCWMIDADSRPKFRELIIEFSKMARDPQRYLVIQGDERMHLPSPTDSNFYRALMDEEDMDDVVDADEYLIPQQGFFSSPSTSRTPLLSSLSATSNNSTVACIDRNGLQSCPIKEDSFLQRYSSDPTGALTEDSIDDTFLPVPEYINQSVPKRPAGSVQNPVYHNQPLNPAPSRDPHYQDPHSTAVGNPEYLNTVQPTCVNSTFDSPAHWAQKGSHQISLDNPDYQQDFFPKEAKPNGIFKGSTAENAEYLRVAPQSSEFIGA"}, "HUNK": {"molecular_target": "HUNK (Homo sapiens (Human), UniProt P57058)"}, "MYLK": {"molecular_target": "MYLK (Homo sapiens (Human), UniProt Q15746)"}, "GRK7": {"molecular_target": "GRK7 (Homo sapiens (Human), UniProt Q8WTQ7)"}, "S6K1": {"molecular_target": "S6K1 (Homo sapiens (Human), UniProt P23443)"}, "KIT(V559D)": {"molecular_target": "KIT(V559D) (Homo sapiens (Human), UniProt P10721, V559D)"}, "EPHA8": {"molecular_target": "EPHA8 (Homo sapiens (Human), UniProt P29322)"}, "[2]": {"molecular_target": "ABL1(M351T)-phosphorylated (Homo sapiens (Human), UniProt P00519, M351T)"}, "[3]": {"molecular_target": "RSK1(Kin.Dom.2-C-terminal) (Homo sapiens (Human), UniProt Q15418)", "sequence (Q15418 418-675)": "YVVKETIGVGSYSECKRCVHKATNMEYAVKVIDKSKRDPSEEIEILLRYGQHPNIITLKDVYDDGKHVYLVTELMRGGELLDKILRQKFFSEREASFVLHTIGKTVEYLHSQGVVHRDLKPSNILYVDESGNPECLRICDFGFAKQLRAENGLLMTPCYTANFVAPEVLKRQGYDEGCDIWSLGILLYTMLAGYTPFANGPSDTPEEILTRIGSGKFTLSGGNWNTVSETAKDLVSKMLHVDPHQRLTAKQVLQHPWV"}, "MEK4": {"molecular_target": "MEK4 (Homo sapiens (Human), UniProt P45985)"}, "FGFR1": {"molecular_target": "FGFR1 (Homo sapiens (Human), UniProt P11362)", "sequence (P11362 22-822)": "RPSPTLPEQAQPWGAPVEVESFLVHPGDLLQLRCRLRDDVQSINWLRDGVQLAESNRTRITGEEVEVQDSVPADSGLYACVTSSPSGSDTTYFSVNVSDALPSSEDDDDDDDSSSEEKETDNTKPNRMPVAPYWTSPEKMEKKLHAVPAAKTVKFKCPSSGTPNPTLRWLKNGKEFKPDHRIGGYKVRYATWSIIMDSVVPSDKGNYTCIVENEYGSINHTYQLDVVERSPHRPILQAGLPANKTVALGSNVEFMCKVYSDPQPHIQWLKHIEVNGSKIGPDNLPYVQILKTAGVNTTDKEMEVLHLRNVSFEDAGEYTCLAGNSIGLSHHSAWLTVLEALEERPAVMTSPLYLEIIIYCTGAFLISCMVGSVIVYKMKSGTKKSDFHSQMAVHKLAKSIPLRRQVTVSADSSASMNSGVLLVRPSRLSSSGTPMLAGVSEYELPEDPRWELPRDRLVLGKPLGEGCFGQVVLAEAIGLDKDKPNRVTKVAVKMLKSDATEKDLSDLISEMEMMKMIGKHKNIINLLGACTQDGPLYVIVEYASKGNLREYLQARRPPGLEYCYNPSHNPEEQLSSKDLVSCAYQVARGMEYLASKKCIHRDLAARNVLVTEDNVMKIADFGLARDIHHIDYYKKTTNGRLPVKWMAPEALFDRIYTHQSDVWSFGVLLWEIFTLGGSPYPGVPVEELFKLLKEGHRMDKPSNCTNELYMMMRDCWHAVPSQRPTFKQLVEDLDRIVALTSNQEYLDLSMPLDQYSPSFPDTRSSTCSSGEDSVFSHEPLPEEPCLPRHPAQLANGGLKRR"}, "[4]": {"molecular_target": "RSK3(Kin.Dom.2-C-terminal) (Homo sapiens (Human), UniProt Q15349)", "sequence (Q15349 415-672)": "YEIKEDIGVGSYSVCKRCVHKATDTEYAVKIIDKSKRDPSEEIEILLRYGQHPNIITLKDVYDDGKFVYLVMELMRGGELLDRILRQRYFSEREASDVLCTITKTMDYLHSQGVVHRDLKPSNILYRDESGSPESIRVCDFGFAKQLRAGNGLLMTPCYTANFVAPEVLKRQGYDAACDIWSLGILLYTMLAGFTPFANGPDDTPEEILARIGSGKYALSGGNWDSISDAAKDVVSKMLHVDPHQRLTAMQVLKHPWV"}, "MINK": {"molecular_target": "MINK (Homo sapiens (Human), UniProt Q8N4C8)"}, "TGFBR1": {"molecular_target": "TGFBR1 (Homo sapiens (Human), UniProt P36897)"}, "ALK(L1196M)": {"molecular_target": "ALK(L1196M) (Homo sapiens (Human), UniProt Q9UM73, L1196M)"}, "HIPK1": {"molecular_target": "HIPK1 (Homo sapiens (Human), UniProt Q86Z02)"}, "YSK1": {"molecular_target": "YSK1 (Homo sapiens (Human), UniProt O00506)"}, "PIK3CB": {"molecular_target": "PIK3CB (Homo sapiens (Human), UniProt P42338)"}, "CSNK1A1": {"molecular_target": "CSNK1A1 (Homo sapiens (Human), UniProt P48729)", "sequence (P48729 whole entry)": "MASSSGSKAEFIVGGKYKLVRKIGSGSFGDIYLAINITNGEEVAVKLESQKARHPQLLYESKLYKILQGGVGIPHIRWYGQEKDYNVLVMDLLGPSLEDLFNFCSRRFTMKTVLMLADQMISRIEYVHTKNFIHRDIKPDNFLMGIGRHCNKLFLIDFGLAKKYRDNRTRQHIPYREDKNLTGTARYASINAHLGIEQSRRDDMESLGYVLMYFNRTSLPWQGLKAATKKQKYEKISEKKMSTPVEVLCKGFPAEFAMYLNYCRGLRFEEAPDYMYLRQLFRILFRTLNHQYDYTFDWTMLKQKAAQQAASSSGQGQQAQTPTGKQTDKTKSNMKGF"}, "ERBB2": {"molecular_target": "ERBB2 (Homo sapiens (Human), UniProt P04626)"}, "DMPK": {"molecular_target": "DMPK (Homo sapiens (Human), UniProt Q09013)", "sequence (Q09013 whole entry)": "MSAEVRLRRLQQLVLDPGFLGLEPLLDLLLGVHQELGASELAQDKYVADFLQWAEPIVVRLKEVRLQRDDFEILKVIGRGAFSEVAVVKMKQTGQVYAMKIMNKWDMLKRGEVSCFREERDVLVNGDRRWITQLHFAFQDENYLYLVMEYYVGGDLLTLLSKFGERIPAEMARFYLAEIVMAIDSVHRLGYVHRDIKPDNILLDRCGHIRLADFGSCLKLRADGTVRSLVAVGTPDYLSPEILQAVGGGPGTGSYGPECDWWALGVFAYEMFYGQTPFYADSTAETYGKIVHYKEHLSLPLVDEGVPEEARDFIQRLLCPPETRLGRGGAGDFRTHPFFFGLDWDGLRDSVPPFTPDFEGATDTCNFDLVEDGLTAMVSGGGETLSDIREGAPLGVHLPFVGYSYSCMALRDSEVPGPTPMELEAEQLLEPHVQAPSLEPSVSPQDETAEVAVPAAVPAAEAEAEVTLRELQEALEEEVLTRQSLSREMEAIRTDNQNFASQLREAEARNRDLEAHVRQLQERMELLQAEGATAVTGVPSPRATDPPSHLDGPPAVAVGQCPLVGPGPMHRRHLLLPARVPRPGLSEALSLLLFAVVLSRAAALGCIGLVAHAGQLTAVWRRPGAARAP"}, "MLK1": {"molecular_target": "MLK1 (Homo sapiens (Human), UniProt P80192)"}}, "note": "Read-outs that look alike come from different tables or passages of the source."}
{"smiles": "CN(C[C@H](Cc1ccccc1)OP(=O)(O)O)C(=O)c1cncc(C#Cc2cnn(C(F)F)c2)c1", "note": "[Example 19, (S)-1-(5-((1-(difluoromethyl)-1H-pyrazol-4-yl)ethynyl)-N-methylnicotinamido)-3-phenylpropan-2-yl dihydrogen phosphate]", "values": [{"measurement": "remaining activity at 0.1 µM", "setting": "TAOK2", "value": 77, "unit": "%"}, {"measurement": "remaining activity at 0.1 µM", "setting": "CAMK1G", "value": 100, "unit": "%"}, {"measurement": "remaining activity at 0.1 µM", "setting": "ACVRL1", "value": 100, "unit": "%"}, {"measurement": "remaining activity at 0.1 µM", "setting": "NEK7", "value": 99, "unit": "%"}, {"measurement": "remaining activity at 0.1 µM", "setting": "[1]", "value": 100, "unit": "%"}, {"measurement": "remaining activity at 0.1 µM", "setting": "RIPK5", "value": 96, "unit": "%"}, {"measurement": "remaining activity at 0.1 µM", "setting": "EGFR", "value": 100, "unit": "%"}, {"measurement": "remaining activity at 0.1 µM", "setting": "HUNK", "value": 96, "unit": "%"}, {"measurement": "remaining activity at 0.1 µM", "setting": "MYLK", "value": 86, "unit": "%"}, {"measurement": "remaining activity at 0.1 µM", "setting": "GRK7", "value": 100, "unit": "%"}, {"measurement": "remaining activity at 0.1 µM", "setting": "S6K1", "value": 95, "unit": "%"}, {"measurement": "remaining activity at 0.1 µM", "setting": "KIT(V559D)", "value": 96, "unit": "%"}, {"measurement": "remaining activity at 0.1 µM", "setting": "EPHA8", "value": 100, "unit": "%"}, {"measurement": "remaining activity at 0.1 µM", "setting": "[2]", "value": 97, "unit": "%"}, {"measurement": "remaining activity at 0.1 µM", "setting": "[3]", "value": 100, "unit": "%"}, {"measurement": "remaining activity at 0.1 µM", "setting": "MEK4", "value": 100, "unit": "%"}, {"measurement": "remaining activity at 0.1 µM", "setting": "FGFR1", "value": 95, "unit": "%"}, {"measurement": "remaining activity at 0.1 µM", "setting": "[4]", "value": 100, "unit": "%"}, {"measurement": "remaining activity at 0.1 µM", "setting": "MINK", "value": 100, "unit": "%"}, {"measurement": "remaining activity at 0.1 µM", "setting": "TGFBR1", "value": 100, "unit": "%"}, {"measurement": "remaining activity at 0.1 µM", "setting": "ALK(L1196M)", "value": 100, "unit": "%"}, {"measurement": "remaining activity at 0.1 µM", "setting": "HIPK1", "value": 82, "unit": "%"}, {"measurement": "remaining activity at 0.1 µM", "setting": "YSK1", "value": 97, "unit": "%"}, {"measurement": "remaining activity at 0.1 µM", "setting": "PIK3CB", "value": 95, "unit": "%"}, {"measurement": "remaining activity at 0.1 µM", "setting": "CSNK1A1", "value": 92, "unit": "%"}, {"measurement": "remaining activity at 0.1 µM", "setting": "ERBB2", "value": 65, "unit": "%"}, {"measurement": "remaining activity at 0.1 µM", "setting": "DMPK", "value": 100, "unit": "%"}, {"measurement": "remaining activity at 0.1 µM", "setting": "MLK1", "value": 96, "unit": "%"}]}
{"smiles": "CN(C[C@@H](O)Cc1ccccc1)C(=O)c1cncc(C#Cc2cnn(C(F)F)c2)c1", "note": "[Example 2, (S)-5-((1-(difluoromethyl)-1H-pyrazol-4-yl)ethynyl)-N-(2-hydroxy-3-phenylpropyl)-N-methylnicotinamide]", "values": [{"measurement": "remaining activity at 0.1 µM", "setting": "TAOK2; TAOK2", "value": 84, "unit": "%"}, {"measurement": "remaining activity at 0.1 µM", "setting": "CAMK1G; CAMK1G", "value": 93, "unit": "%"}, {"measurement": "remaining activity at 0.1 µM", "setting": "ACVRL1; ACVRL1", "value": 100, "unit": "%"}, {"measurement": "remaining activity at 0.1 µM", "setting": "NEK7; NEK7", "value": 100, "unit": "%"}, {"measurement": "remaining activity at 0.1 µM", "setting": "[1]; RPS6KA4(Kin.Dom.2-C-terminal)", "value": 97, "unit": "%"}, {"measurement": "remaining activity at 0.1 µM", "setting": "RIPK5; RIPK5", "value": 100, "unit": "%"}, {"measurement": "remaining activity at 0.1 µM", "setting": "EGFR; EGFR", "value": 93, "unit": "%"}, {"measurement": "remaining activity at 0.1 µM", "setting": "HUNK; HUNK", "value": 82, "unit": "%"}, {"measurement": "remaining activity at 0.1 µM", "setting": "MYLK; MYLK", "value": 87, "unit": "%"}, {"measurement": "remaining activity at 0.1 µM", "setting": "GRK7; GRK7", "value": 100, "unit": "%"}, {"measurement": "remaining activity at 0.1 µM", "setting": "S6K1; S6K1", "value": 95, "unit": "%"}, {"measurement": "remaining activity at 0.1 µM", "setting": "KIT(V559D); KIT(V559D)", "value": 100, "unit": "%"}, {"measurement": "remaining activity at 0.1 µM", "setting": "EPHA8; EPHA8", "value": 99, "unit": "%"}, {"measurement": "remaining activity at 0.1 µM", "setting": "[2]; ABL1(M351T)-phosphorylated", "value": 86, "unit": "%"}, {"measurement": "remaining activity at 0.1 µM", "setting": "[3]; RSK1(Kin.Dom.2-C-terminal)", "value": 100, "unit": "%"}, {"measurement": "remaining activity at 0.1 µM", "setting": "MEK4; MEK4", "value": 100, "unit": "%"}, {"measurement": "remaining activity at 0.1 µM", "setting": "FGFR1; FGFR1", "value": 94, "unit": "%"}, {"measurement": "remaining activity at 0.1 µM", "setting": "[4]; RSK3(Kin.Dom.2-C-terminal)", "value": 100, "unit": "%"}, {"measurement": "remaining activity at 0.1 µM", "setting": "MINK; MINK", "value": 100, "unit": "%"}, {"measurement": "remaining activity at 0.1 µM", "setting": "TGFBR1; TGFBR1", "value": 100, "unit": "%"}, {"measurement": "remaining activity at 0.1 µM", "setting": "ALK(L1196M); ALK(L1196M)", "value": 100, "unit": "%"}, {"measurement": "remaining activity at 0.1 µM", "setting": "HIPK1; HIPK1", "value": 72, "unit": "%"}, {"measurement": "remaining activity at 0.1 µM", "setting": "YSK1; YSK1", "value": 100, "unit": "%"}, {"measurement": "remaining activity at 0.1 µM", "setting": "PIK3CB; PIK3CB", "value": 100, "unit": "%"}, {"measurement": "remaining activity at 0.1 µM", "setting": "CSNK1A1; CSNK1A1", "value": 100, "unit": "%"}, {"measurement": "remaining activity at 0.1 µM", "setting": "ERBB2; ERBB2", "value": 70, "unit": "%"}, {"measurement": "remaining activity at 0.1 µM", "setting": "DMPK; DMPK", "value": 100, "unit": "%"}, {"measurement": "remaining activity at 0.1 µM", "setting": "MLK1; MLK1", "value": 100, "unit": "%"}]}
